Where two headings read alike, the source gives them in different places.
How the values were obtained:
JFH1 HCV (genotype 2a) = assay type: cell-based, hepatitis C virus; details: for intracellular JFH1 HCV RNA levels: 48 hrs
[1] = system: SgJFH1-Luc subgenomic HCV replicon (genotype 2a); assay type: cell-based, hepatitis C virus
Excerpt: (§1) The genotype 2a HCV constructs, pJFH1 (produces infectious virus particles), replicative-null pJFH1-GND, and subgenomic pSgJFH1-Luc (contains a luciferase reporter gene), are described elsewhere (23, 24). Subgenomic HCV replicons are bicistronic constructs that express only the nonstructural proteins of HCV under the control of encephalocarditis virus IRES; neomycin resistance or firefly luciferase gene is under the control of the HCV IRES (15, 22, 24). These replicons support HCV RNA replication but no virus is formed in cell culture. Huh7 cell clones (SgPC2 cells, Clone B) supporting continuous replication of subgenomic HCV replicon of genotype 1b (Con1 sequence) were also used (17, 22).
After various treatments, SgJFH1 Luc RNA-transfected cells were lysed with 1× Reporter Lysis Buffer, and the luciferase activity was determined using Luciferase Reporter Assay Kit (Promega Corp.) (24). Luciferase activities were normalized by total protein content, determined with bicinchoninic acid (BCA) assay kit from Pierce.
To test whether the JFH1 RNA replication was also affected by ethanol, Huh7 cells were transfected with JFH1 SgJFH1-Luc RNA and exposed the cells to ethanol for 48 hours. Then, HCV replication was monitored by measuring the firefly luciferase activity (24).

intracellular GSH = assay: Intracellular GSH content in Huh7 cells; assay type: cell-based, human
Excerpt: Hepatic ethanol, particularly CYP2E1-mediated, metabolism is known to generate ROS (31). […] First, to examine the effects of endogenously generated ROS, L-buthionine S,R-sulfoximine (BSO) was used. BSO depletes glutathione (GSH), a major endogenous antioxidant, by inhibiting its de novo synthesis and therefore, would amplify the effects of endogenous ROS, generated during normal cellular metabolism and in response to HCV (5). BSO decreases intracellular GSH content by approximately 80±12% in Huh7 cells (P<0.05).

JFH1 virus = assay: HCV RNA in naive Huh7 or Huh7.5 cells inoculated with JFH1 virus-containing medium; assay type: cell-based, hepatitis C virus
Experimental: (§2) The in vitro transcription, and transfection of HCV RNA, and Huh7 human hepatoma cell culture were performed as previously described (17). For experiments involving stable clones, cells were cultured in medium supplemented with 0.4-0.5 mg/mL G418, and G418 was removed from cell culture medium one day prior to cell treatments, which were performed as described in Results. For the in vitro infectivity assays, 2 ml of the extracellular medium from JFH1 RNA-transfected cells was used to inoculate naive Huh7 or Huh7.5 cells with 3 ml of fresh medium, as described (23, 25). Treatments were initiated 24 hours after infection and the cells were harvested after another 24 or 48 hrs.
The total intracellular RNA was obtained from cells using Trizol (Invitrogen). To obtain extracellular HCV RNA, cell culture medium samples were first treated with RNase A (100 μg/ml) for 30 min at room temperature, then RNA was extracted using Trizol LS and glycogen as a carrier. HCV RNA was quantified by qRT-PCR as described (17, 23). For JFH1, the primer sequences were 5′ […] 3′ (nt 146 to 164; forward, SEQ ID NO.: 1), and 5′ […] 3′ (nt 277 to 295; reverse, SEQ ID NO.: 2), and the sequence of the fluorogenic probe, labeled with 6-FAM and TAMRA (Biosearch Technologies, Inc.), was 5′ […] 3′ (nt 168 to 188, SEQ ID NO.: 3). The primer and probe sequences for qRT-PCR analysis of Con1 RNA's were described previously (17). Standard curves were generated using in vitro-transcribed HCV RNA's. Intracellular HCV RNA levels were normalized by 18 S rRNA or GAPDH mRNA.

[2] = system: Con1 subgenomic HCV replicon (genotype 1b); assay: Con1 subgenomic replicon HCV RNA in SgPC2 cells (Northern blot); assay type: cell-based, hepatitis C virus; details: 0.1 to 1% ethanol, 24 hrs
Excerpt: as §1, §2
(§3) Intracellular RNA extraction and northern blots were carried out, as described (16, 17). DNA probes were prepared from nucleotides (“nt.”) 4128-8273 or 358-2816 of JFH1, generated with ScaI and ApaL I, respectively, or nt. 3669 to 6016 of the Con1 subgenomic replicons. Images were quantified by densitometry, using Optiquant Cyclone 4.00 (Perkin Elmer), and data were normalized by glyceraldehyde 3-phosphate dehydrogenase (GAPDH) mRNA content.

[3] = system: Con1 HCV subgenomic replicon; assay: Con1 subgenomic replicon HCV RNA in Clone B cells; assay type: cell-based, hepatitis C virus; details: 24 hrs, response compared with SgPC2 cells
Excerpt: as §1, §3

[4] = system: HCV RNA replication complex (Con1 strain); details: cells treated with ethanol for 5 hrs
Experimental: (§4) In vitro replication assay was carried out according to the modified method of Ali et al., as previously described (16, 17, 26). Briefly, cytoplasmic lysates were prepared, and the replication was allowed to proceed for 1 hr at 30° C. in the presence of α-^32P-CTP and actinomycin D. Then, RNA products were analyzed on a 1% formaldehyde agarose gel, which was subsequently analyzed, using Optiquant Cyclone 4.00 (Perkin Elmer).
(§5) JFH1-transfected cells were exposed to ethanol for 5 hrs and then, the cytoplasmic lysates, containing the HCV replication complex, were isolated. Then, the in vitro RNA replication assay was performed in the presence of α-^32P-labeled CTP and actinomycin D, as previously described (17). JFH1 GND cell lysates were used as a negative control.

[5] = system: HCV RNA replication complex (JFH1)
Experimental: as §4, §5

HCV IRES = details: ethanol, data not shown
Experimental: as §5

CYP2E1 = details: daily 0.2% (v/v) ethanol for 48 hrs, JFH1 cells
Excerpt: Cells were sonicated in Laemmli buffer, and proteins were separated on 7-20% Tris-glycine gel (Invitrogen) or 12.5% SDS-polyacrylamide gel and western blotted, using mouse monoclonal anti-NS5A (Biodesign, Inc.), goat anti-actin, and the corresponding horseradish peroxidase-conjugated secondary antibodies (Santa Cruz Laboratories) with an ECL Plus kit (Amersham Biosciences). Images were obtained and quantified, using 152000R (Kodak).

NADH/NAD+ ratio = assay: NADH/NAD+ enzymatic NADH recycling assay; assay type: cell-based, human
Experimental: NADH and NAD+ levels were determined by enzymatic NADH recycling assay, using the NAD+/NADH Quantification Kit from Biovision, per manufacturers recommendations with an optional filtration step that used Microcon YM-10 (Millipore). […] The data were normalized by total protein content, determined with BCA assay kit from Pierce.

[6] = system: Huh7 human hepatoma cells; details: data not shown
Experimental: NADH and NAD+ levels were determined by enzymatic NADH recycling assay, using the NAD+/NADH Quantification Kit from Biovision, per manufacturers recommendations with an optional filtration step that used Microcon YM-10 (Millipore). Total ATP content was measured using Somatic Cell ATP Assay Kit from Sigma-Aldrich. The data were normalized by total protein content, determined with BCA assay kit from Pierce.
To examine whether ethanol increased the complete replication of HCV, positive-sense genomic JFH1 RNA was produced by in vitro transcription, using T7 RNA polymerase, and transfected into Huh7 human hepatoma cells. Then, the transfected cells were exposed to 0-1.0% (v/v; 0-172 mM) ethanol once daily with a change of medium each day for 48 hrs. Then, the cells and the cell culture medium were harvested and analyzed for intracellular and RNase A-resistant extracellular HCV RNA's by a combination of Northern blots and qRT-PCR.

[7] = system: intracellular cholesterol; assay: Total intracellular cholesterol content in SgPC2 cells; assay type: cell-based, human; details: 24 h
Experimental: FIG. 7. […] SgPC2 cells were treated for 24 h with (A and B) 0.2% ethanol, 5 μM acetaldehyde, 0.2% isopropyl alcohol, 2 mM acetone, 5 μM acetate±30 min pretreatment with (A) 5 μM lovastatin, 5 μM fluvastatin, (B) 5 μg/ml TOFA, 5 μg/ml cerulenin, or with (C) 2 mM β-mercaptopropionic acid (β-MPA). Then, HCV RNA levels were monitored by Northern blot and quantified by densitometry (n=3). D, SgPC2 cells, treated for 24 h with ethanol, acetaldehyde, acetone, and acetate±lovastatin, were monitored for cholesterol levels (n=3). Lovastatin was activated, as described, before use (29). *, indicates statistically significant difference for indicated sample sizes (p<0.05)

SMILES: CCCCS(=N)(=O)CCC(N)C(=O)O [BSO, L-buthionine S,R-sulfoximine]
- extracellular JFH1 RNA levels (JFH1 HCV (genotype 2a); BSO, 24 hrs): significantly decreased
- intracellular JFH1 RNA levels (JFH1 HCV (genotype 2a); BSO, 24 hrs): significantly decreased
- subgenomic JFH1 RNA replication ([1]; BSO alone or with 0.25 mU/mL GO + glucose, 24 hr): suppressed
- decrease of intracellular GSH content (intracellular GSH): approximately 80±12%

SMILES: CCO [ethanol]
- intracellular JFH1 HCV RNA levels (JFH1 HCV (genotype 2a); 0.2% (v/v) ethanol once daily): 237±40 % of untreated controls
- intracellular JFH1 HCV RNA levels (JFH1 HCV (genotype 2a); 0.5% (v/v) ethanol once daily): 305±61 % of untreated controls
- extracellular HCV RNA (virus secretion) (JFH1 HCV (genotype 2a); ethanol treatment 48 hrs, RNase A-resistant RNA in medium): significantly elevated
- HCV replication in RIG-1-defective Huh7.5 cells (JFH1 virus; FIG. 5, also data not shown): increase
- HCV RNA in Huh7 cells infected with cell culture-generated JFH1 virion (JFH1 virus; ethanol treatment 48 hrs): increased
- luciferase activity (JFH1 RNA genome replication) [1]: increased
- genotype 1b HCV RNA [2]: significant increases
- HCV RNA in Clone B cells [3]: responded similarly
- in vitro replication rate of Con1 strain [4]: accelerated
- rate of HCV RNA replication in vitro ([5]; cells exposed to ethanol for 5 hrs): significantly increased
- rate of HCV RNA replication in vitro ([5]; cells exposed to ethanol for ½, 1, or 3 hrs, data not shown): no significant increase
- HCV IRES activity (HCV IRES): did not increase
- CYP2E1 expression (CYP2E1): enhanced
- NADH/NAD+ ratio (NADH/NAD+ ratio; SgPC2 cells, 3 h, 0.2% ethanol, 5 μM acetaldehyde, 5 μM acetate, 0.2% isopropyl alcohol, 2 mM acetone, 25 mM tert-butanol): increases
- increase of NADH/NAD+ ratio (NADH/NAD+ ratio; ethanol, within 3 hrs): 76.2±6.1%
- overall ATP levels [6]: not significantly perturbed
- cytotoxicity ([6]; ethanol concentrations used, cell morphology and cellular ATP content): did not induce any cytotoxicity
- total intracellular cholesterol content [7]: increased

Reference: patent publication US20100226888A1, “Ethanol Enhances the Complete Replication of Hepatitis C Virus: the Role of Acetaldehyde” (priority 2009, published 2010)
